Assay [1] has as its target T1, Tryptase (Homo sapiens, UniProt Q9BZJ3+Q15661+Q9NRR2). Briefly: Inhibition of tryptase (unknown origin) using t-Boc-Phe-Ser-Arg-MCA as substrate at 10 uM after 5 mins by fluorimetric analysis. Type of assay: protein assay.
For assay [2], the target named is T2, Trypsin (Homo sapiens, UniProt P07477+P07478+P35030). Briefly: Inhibition of trypsin (unknown origin) using Bz-Arg-pNA.HCl as substrate at 10 uM after 5 mins by colorimetric analysis. It is filed as protein assay.
Assay [3] has as its target T3, Prothrombin (Homo sapiens, UniProt P00734). The assay can be described thus: Inhibition of thrombin (unknown origin) using t-Boc-Val-Pro-Arg-MCA as substrate at 10 uM after 5 mins by fluorimetric analysis.
Assay [4] addresses T3, Prothrombin. Briefly: Non-competitive inhibition of thrombin (unknown origin) using t-Boc-Val-Pro-Arg-MCA as substrate by Lineweaver-Burk plot analysis.
Assay [5] concerns the target T2, Trypsin. The assay can be described thus: Inhibition of trypsin (unknown origin) using Bz-Arg-pNA.HCl as substrate after 5 mins by colorimetric analysis. It is filed as protein assay.
Assay [6] concerns the target T3, Prothrombin. Briefly: Inhibition of thrombin (unknown origin) using t-Boc-Val-Pro-Arg-MCA as substrate after 5 mins by fluorimetric analysis.
For assay [7], the target named is T3, Prothrombin. Briefly: Competitive inhibition of thrombin (unknown origin) using t-Boc-Val-Pro-Arg-MCA as substrate by Lineweaver-Burk plot analysis.
Assay [8] has as its target T1, Tryptase. Briefly: Inhibition of tryptase (unknown origin) using t-Boc-Phe-Ser-Arg-MCA as substrate after 5 mins by fluorimetric analysis. Type of assay: protein assay.

Activity calls are given as the source filed them. The rule behind the calls is not given here.

For `CCOP(=O)(Cc1ccc(N)nc1)Oc1ccc2c(c1)C(=O)N(C)C2=O` (stereo not given), the inhibition – broadly, the relative decrease from the control value, in per cent – in assay [1] was 5.3%; in assay [3] it was 59%. Further, in assay [2], the inhibition result is “inactive”.
Take `CCOP(=O)(CCc1ccc(N)nc1)Oc1ccc2c(c1)C(=O)N(C)C2=O` (stereo not given): the inhibition worked out at 11% in assay [1] and 95% in assay [3]. Further, the inhibition result in assay [4] and in assay [2] was “inactive” throughout.
`CN1C(=O)c2ccc(OC(=O)CCc3ccc(N)nc3)cc2C1=O.Cl`: the figures for the inhibition in assay [1], in assay [2] and in assay [3] were 98%, 97% and 70%, respectively. In addition, the IC50 (in general, the concentration needed to halve the response being measured) is 1.2 µM in assay [5], 5.3 µM in assay [6] and 0.19 µM in assay [8]. For the same molecule, in assay [7], the inhibition result was “Active”.
As for `CN1C(=O)c2ccc(NC(CCc3ccc(N)nc3)P(=O)(Oc3ccccc3)Oc3ccccc3)cc2C1=O` (stereo not given), the inhibition entry in assay [1], in assay [2] and in assay [3] was “inactive” each time.
As to `CC(C)N1C(=O)c2ccc(NC(CCc3ccc(N)nc3)P(=O)(Oc3ccccc3)Oc3ccccc3)cc2C1=O` (stereo not given), the inhibition entry in assay [1], in assay [2] and in assay [3] was “inactive” each time.

Values taken from ChEMBL document CHEMBL3603840, “Discovery of non-competitive thrombin inhibitor derived from competitive tryptase inhibitor skeleton: Shift in molecular recognition resulted from skeletal conversion of carboxylate into phosphonate” (Bioorg Med Chem Lett, 2015).
